No end group written: not given here.
Columns and labels:
[1] = test system: acute liver injury induced by carbon tetrachloride; assay: Acute liver injury induced by carbon tetrachloride in rats, blood enzymes and lethality; type: in vivo, male rats of the V-star line; conditions: for Lethality: comparison of the hexapeptide with somatostatin; for Number of rats survived after 48 hours: groups of 13; for Concentration of alanine transaminase / Concentration of glutamatedehydrogenase: rat blood, CCl4, repeated after 6, 24 and 30 hours
Protocol: The hexapeptide according to the present invention was also studied on an experimental model of an acute liver injury in male rats of the V-star line induced by means of carbon tetrachloride. After a 12-hours' starvation the rats were given CCl4 in the concentration of […] diluted in olive oil intraperitoneally. After administration of CCl4 the rats were injected with the hexapeptide according to the present invention in different doses (10, 30, 100 and 300 μg/kg). Repeated injections of the hexapeptide according to the invention were effected after 6, 24, and 30 hours. The control group of animals was given, instead of the hexapeptide of this invention, a physiological solution (0.2 ml). All the test groups of animals consisted of 13 rats. Concentrations of alanine transaminase and glutamatedehydrogenase were determined in the rats blood.
A statistical processing in the case of liver injury caused by carbon tetrachloride in respect of the enzymes was effected using t-criterion, while in respect of lethality--by means of .chi.^2 criterion.

[2] = test system: acute hepatitis induced by D-galactosamine hydrochloride; assay: Acute hepatitis induced by D-galactosamine hydrochloride in mice, plasma enzymes; type: in vivo, male mice of the line Balb C; conditions: for Concentration of alanine transaminase / Concentration of glutamatedehydrogenase: mouse blood plasma, D-galactosamine hydrochloride 700 mg/kg i.p., hexapeptide 100 μg/kg or prednisolone 5 mg/kg hypodermally, repeated after 6 hours
Protocol: The study of a hepatoprotective effect of the hexapeptide according to the present invention was carried out in comparison with prednisolone on male mice of the line Balb C.
The development of acute hepatitis was induced in mice subjected to a 12-hours' starving by means of D-galactosamine hydrochloride which was administered intraperitoneally diluted in 0.1 ml of a physiological solution in the dose of 700 mg/kg. The control group of animals was administered intraperitoneally with 0.1 ml of a physiological solution. The animals given D-galactosoamine hydrochloride were injected, immediately after its administration, with the hexapeptide according to the present invention (100 μg/kg), prednisolone (5 mg/kg) or a physiological solution (0.1 ml) hypodermally. Repeated injections of the test preparations were made after 6 hours. Each of the groups consisted of 12 animals. The mice were slaughtered by decapitation, blood was collected and in its plasma concentrations of alanine transaminase and glutametedehydrogenase were determined.
The statistical processing of the results obtained was effected using t-criterion. The certain value was regarded as the dirrerence at the level of 95% (at P<0.05).

Solubility of the powder = type: physicochemical
Protocol: The hexapeptide according to the present invention comprises a white powder well soluble in distilled water, physiological solution, ethanol, insoluble in ether, ethylacetate, benzene. Melting point is 154°-156° C., (α)D^25 =+8.4 (with 0.5 H2 O).

Acute toxicity LD50 = conditions: in vivo
[3] = Cell composition of the blood and basic hemodynamic characteristics in all experiments; type: in vivo; conditions: all of the experiments with the hexapeptide

C[C@H](N)C(=O)NCC(=O)N[C@H]1CSSC[C@@H](C(=O)O)NC(=O)[C@H](CO)NC(=O)[C@H]([C@@H](C)O)NC(=O)[C@H](Cc2ccccc2)NC(=O)[C@H]([C@@H](C)O)NC(=O)[C@H](CCCCN)NC(=O)[C@H](Cc2c[nH]c3ccccc23)NC(=O)[C@H](Cc2ccccc2)NC(=O)[C@H](Cc2ccccc2)NC(=O)[C@H](CC(N)=O)NC(=O)[C@H](CCCCN)NC1=O [somatostatin, reference compound]
Lethality [1]: 20%
Maximum effective dose ([1]; comparison with the hexapeptide): 1.5 mg/kg

FAGFGR [hexapeptide of this invention, phenylalanyl-alanyl-glycyl-phenylalanyl-glycylarginine]
Effect on both parameters (alanine transaminase, glutamatedehydrogenase) ([1]; CCl4 rats, 10-300 μg/kg): lowers both parameters depending on the dose
Number of rats survived after 48 hours ([1]; CCl4 rats, dose 10 μg/kg): 6
Number of rats survived after 48 hours ([1]; CCl4 rats, dose 30 μg/kg): 9
Number of rats survived after 48 hours ([1]; CCl4 rats, dose 100 μg/kg): 13
Number of rats survived after 48 hours ([1]; CCl4 rats, dose 300 μg/kg): 13
Lethal cases (%) ([1]; CCl4 rats, dose 10 μg/kg): 54%
Lethal cases (%) ([1]; CCl4 rats, dose 30 μg/kg): 30%
Lethal cases (%) ([1]; CCl4 rats, dose 100 μg/kg): 0%
Lethal cases (%) ([1]; CCl4 rats, dose 300 μg/kg): 0%
Lethal cases ([1]; CCl4 rats, doses of 100 and 300 μg/kg): no lethal cases are observed
Lethality [1]: 0%
Maximum effective dose ([1]; comparison with somatostatin): 0.1 mg/kg
Maximum effective dose lower than that of somatostatin ([1]; hexapeptide versus somatostatin): 15 times
Concentration of alanine transaminase ([1]; 10 μg/kg): 4141.5 ± 1094.8 JU/e
Concentration of glutamatedehydrogenase ([1]; 10 μg/kg): 1962.0 ± 494.7 JU/e
Concentration of alanine transaminase ([1]; 30 μg/kg): 3037.8 ± 580.8 JU/e
Concentration of glutamatedehydrogenase ([1]; 30 μg/kg): 1487.3 ± 301.5 JU/e
Concentration of alanine transaminase ([1]; 100 μg/kg): 2339.8 ± 333.4 JU/e
Concentration of glutamatedehydrogenase ([1]; 100 μg/kg): 874.3 ± 118.3 JU/e
Concentration of alanine transaminase ([1]; 300 μg/kg): 2110.1 ± 374.5 JU/e
Concentration of glutamatedehydrogenase ([1]; 300 μg/kg): 603.3 ± 118.0 JU/e
Effect on the increase of concentrations of alanine transaminase ([2]; D-galactosamine mice, 100 μg/kg): substantially fully blocked the increase
Reduction of the concentration of glutamatedehydrogenase ([2]; D-galactosamine mice, 100 μg/kg, versus D-galactosamine + physiological solution): 2 times
Concentration of alanine transaminase [2]: 115.4 ± 5.2 JU/e
Concentration of glutamatedehydrogenase [2]: 62.8 ± 4.9 JU/e
Solubility (Solubility of the powder; benzene): insoluble
Solubility (Solubility of the powder; distilled water): well soluble
Solubility (Solubility of the powder; ethanol): well soluble
Solubility (Solubility of the powder; ether): insoluble
Solubility (Solubility of the powder; ethylacetate): insoluble
Solubility (Solubility of the powder; physiological solution): well soluble
Acute toxicity LD50 (Acute toxicity LD50): 120 mg/kg
Changes on the part of basic hemodynamic characteristics [3]: no changes were observed
Changes on the part of the cell composition of the blood [3]: no changes were observed

C[C@]12C=CC(=O)C=C1CC[C@@H]1[C@@H]2[C@@H](O)C[C@@]2(C)[C@H]1CC[C@]2(O)C(=O)CO [prednisolone, reference compound]
Effect on the values of the studied parameters (alanine transaminase, glutamatedehydrogenase) ([2]; D-galactosamine mice, prednisolone 5 mg/kg): a trend was observed towards reducing
Effect on the concentration of the enzymes ([2]; conventionally employed parenteral dose): does not provide any pronounced effect
Concentration of alanine transaminase [2]: 151.2 ± 14.3 JU/e
Concentration of glutamatedehydrogenase [2]: 104.5 ± 10.1 JU/e

Reference: patent US4698419A, “Hexapeptide” (Vsesojuzny Kardiologichesky Nauchny Tsentr Akademii …, priority 1984, dated 1987)
